From EP0286418A1, “Anti-retroviral agents and delivery systems for the same” (priority 1987, dated 1988)

Tests used:
[1] = tested on: adherent human monocytes; assay: uptake of dideoxynucleotides; type: cell-based; conditions: 37°C, drug 1 uM
Procedure: Uptake of ₃H-deoxyctidine triphosphate (³H-dCTP) was used as an indicator of the uptake of vesicle contents by cells. Uptake experiments were done by plating 5 × 10⁶ monocytes in each well of a 6-well microtiter plate (Costar) and adding reagents one or two days later. Incubations were done in DMEM-GG-FCS at 37°C. The rate of increase of dCTP content in the cells over a 9-hour period (Table 7) averaged 0.29 pmole/million cells/hr with liposomes containing 4 mM EPC. Other experiments established that ddCTP and ddCMP are not readily taken up by the cells (Table 9).

[2] = in vitro; type: in vitro ADME
Procedure: When the same incubations were done in the absence of monocytes, the results were essentially identical.
Studies were conducted under conditions mimicking those of anti-viral tests. ddCMP: dideoxycytidine monophosphate. Data points represent integrals under HPLC peaks from gradient elution on a VYDAC nucleotide column.

[3] = tested on: monocytes; assay: superoxide generation by monocytes; type: cell-based, Human
Procedure: (§1) Human peripheral blood mononuclear cells were obtained by standard procedures employing continuous flow cell separation (leukapheresis), such as described in Wahl, et al., Cellular Immunol. 85:373-383 (1984). The preparation was diluted in phosphate-buffered saline and layered onto gradients of Ficoll-Paque (Pharmacia-PL Biochemicals, Piscataway, N.J., USA). After centrifugation, mononuclear cells were pipetted from the interface, washed, and suspended in DMEM-GG-FCS. They were then fractionated by countercurrent centrifugal elutriation. The procedure comprises the Beckman elutriation system including a J-21 Beckman Centrifuge, a JE-6 elutriator rotor, a stroboscope, and a Masterflex pump and pumphead. The cells were loaded into the rotor and fractionated by elution at increasing flow rates. Fractions 7 and 8, highly enriched for monocytes, were pooled for use.

[4] = trypan blue exclusion test; type: cell-based; conditions: human, 8.e6 and u.1 cells; at all doses; read-out: viable cells (trypan blue exclusion)
Excerpt: Tritiated thymidine uptake was used to assess toxic effects of ddCTP liposomes on the lymphoid (8.E6) and promonocytic (U.1) clones. […] As judged by trypan blue exclusion test, the cells remained more than 90% viable at all doses.

[5] = tested on: HIV-1 (Ba-L); assay: inhibition of HIV proliferation in monocytes (p24 antigen ELISA); type: cell-based; conditions: HIV-infected human monocytes; compared with ddCTP liposomes
[6] = leakage from liposomes at 37°C in DMEM-GG-FCS; type: physicochemical
Procedure: The release of liposome contents as a function of time was assessed by centrifugal elution of free ddCTP through Centrifree filters (Amicon, Danvers, Mass., USA). Typically, 100 microliters of suspension was centrifuged at 1500 G for about 10 minutes, 100 microliters additional phosphate-buffered saline was added, and the filter was again spun for about 10 minutes. Pooled filtrate was counted for ³H-ddCTP to determine released drug, and the filter itself was similarly counted to establish the mass balance. Very little ¹⁴C-cholesteryl oleate was ever found in the filtrate, indicating that liposomal lipid was not passing through the filter. […] Leakage tests were also conducted under conditions mimicking those of the viral experiments infra, i.e., in tissue culture plates with 96 flat-bottom wells (Costar, Cambridge, Mass., USA) at 37°C in a CO₂ incubator in Dulbecco's Minimal Eagles Medium supplemented with gentamycin, glutamine, and 10% fetal calf serum (DMEM-GG-FCS). […] In contrast, 50% of the ddC was released within 1 hour, and 95% within 4 hours.

[7] = tested on: monocytes; assay: production of prostaglandin E2 by monocytes; type: cell-based, Human; conditions: effect on monocyte function
Procedure: as §1

[8] = tested on: monocytes; assay: percent lysis of Candida albicans by monocytes; type: cell-based, Human; conditions: effect on monocyte function
Procedure: as §1

[9] = in vitro; type: in vitro ADME; conditions: serum-containing medium with cells
[10] = leakage from liposomes at 4°C; type: physicochemical; conditions: liposomes of Example 1 or similar liposomes
[11] = capture / encapsulation volume of ddCTP liposomes; type: physicochemical
Procedure: The amount of lipid in the preparation was determined from ¹⁴C counts (¹⁴C-cholesteryl oleate) in a standard beta counting scintillation fluid. The amount of ddCTP was assessed from the optical density at 280 nm. Samples for optical density reading were prepared by adding 0.9 ml of 65:25 chloroform ethanol solution to 0.5 ml of the sample. This eliminated light scatter that would otherwise have resulted from the presence of lipid particles. Negative staining electron microscopy was performed using glow-discharged formvar-carbon coated grids and sodium phosphotungstate. Release of ddCTP from liposomes was assessed by dialysis of samples against phosphate buffered saline. The integrity of ddCTP was assessed by high-performance gradient-elution anion exchange chromatography.
The amounts of lipid and ddCTP in the preparation were calculated from ¹⁴C and ³H counts, respectively. Encapsulation was generally in the range of 1.5 - 2 microliters/micromole EPC. The size distribution of liposomes was determined by quasi-elastic light-scattering (QELS) using an N4MD multiple-angle submicron particle size analyzer (Coulter, Hialeah, Fla., USA). […] The profile is substantially similar to that of a fresh preparation. The weight average diameter was about 215 nm with the coefficient of variation being about 100 nm.

## Nc1ccn([C@H]2CC[C@@H](COP(=O)(O)OP(=O)(O)OP(=O)(O)O)O2)c(=O)n1 [ddCTP, 2ʹ,3ʹ-dideoxycytidine-5ʹ-triphosphate]
[1]; 0. h
  pmole drug/1 million cells (mean): 0.15 pmole drug/1 million cells
[1]; 0.33 h
  pmole drug/1 million cells (mean): 0.09 pmole drug/1 million cells
[1]; 1.00 h
  pmole drug/1 million cells (mean): 0.09 pmole drug/1 million cells
[1]; 3.00 h
  pmole drug/1 million cells (mean): 0.11 pmole drug/1 million cells
[1]; 6.00 h
  pmole drug/1 million cells (mean): 0.33 pmole drug/1 million cells
[1]; 9.00 h
  pmole drug/1 million cells (mean): 0.43 pmole drug/1 million cells
[1]; 20.00 h
  pmole drug/1 million cells (mean): 0.66 pmole drug/1 million cells
[2]
  conversion to ddCMP: largely converted to ddCMP
  fraction present as ddC: 23%
[2]; 10% fetal calf serum medium, 0.5 h
  Percent of total drug 3H as ddCTP: 39.6%
[2]; serum-containing medium with cells, 4 h
  Percent of total drug 3H as ddCTP: 1.4%
[2]; serum-containing medium with cells, 6 h
  Percent of total drug 3H as ddCTP: 1.4%
[2]; serum-containing medium without cells, 0.75 h
  Percent of total drug 3H as ddCTP: 20.3%
[2]; serum-containing medium without cells, 1.5 h
  Percent of total drug 3H as ddCTP: 19.5%
[2]; serum-containing medium without cells, 4 h
  Percent of total drug 3H as ddCTP: 2.7%
[2]; serum-containing medium without cells, 6 h
  Percent of total drug 3H as ddCTP: 0.6%
[2]; serum-containing medium without cells, Percent of total drug 3H as ddCTP
  remaining at 72 h: 0%
[3]; ddCTP 2.2 uM
  Superoxide: 1.21 (.02) nmoles/well
[3]; ddCTP 11 uM
  Superoxide: 0.85 (.04) nmoles/well
[3]; ddCTP 56 uM
  Superoxide: 0.77 (.04) nmoles/well
[3]; ddCTP .0 uM
  Superoxide: 1.19 (.06) nmoles/well
[3]; ddCTP .018 uM
  Superoxide: 1.33 (.05) nmoles/well
[3]; ddCTP .09 uM
  Superoxide: 1.42 (.10) nmoles/well
[3]; ddCTP .45 uM
  Superoxide: 1.33 (.08) nmoles/well
[4]
  viability: > 90%
[5]
  activity against p24 expression: active at similar concentrations
[6]; absence of cells, 0 h
  % of total drug in liposomes: 85.6%
[6]; absence of cells, 0.16 h
  % of total drug in liposomes: 74.3%
[6]; absence of cells, 0.32 h
  % of total drug in liposomes: 78.5%
[6]; absence of cells, 1 h
  % of total drug in liposomes: 77.2%
[6]; absence of cells, 2 h
  % of total drug in liposomes: 82.1%
[6]; absence of cells, 4 h
  % of total drug in liposomes: 78.5%
[6]; absence of cells, 24 h
  % of total drug in liposomes: 81.7%
[6]; absence of cells, 48 h
  % of total drug in liposomes: 75.7%
[6]; absence of cells, 72 h
  % of total drug in liposomes: 87.4%
[6]; over a period of 72 hours, presence or absence of adherent monocytes
  leakage from liposomes: Very little leakage
[6]; with adherent human monocytes, 0 h
  % of total drug in liposomes: 84.4%
[6]; with adherent human monocytes, 0.16 h
  % of total drug in liposomes: 83.8%
[6]; with adherent human monocytes, 0.32 h
  % of total drug in liposomes: 84.4%
[6]; with adherent human monocytes, 1 h
  % of total drug in liposomes: 78.0%
[6]; with adherent human monocytes, 2 h
  % of total drug in liposomes: 83.3%
[6]; with adherent human monocytes, 4 h
  % of total drug in liposomes: 82.9%
[6]; with adherent human monocytes, 24 h
  % of total drug in liposomes: 75.9%
[6]; with adherent human monocytes, 48 h
  % of total drug in liposomes: 68.0%
[6]; with adherent human monocytes, 72 h
  % of total drug in liposomes: 78.4%
[7]
  production of prostaglandin E2: No consistent effects
[8]
  percent lysis of Candida albicans: No consistent effects
[9]; 0.5 h
  Percent of total drug 3H as ddCTP: 67.8%
[9]; Percent of total drug 3H as ddCTP
  remaining at 72 h: 0%
[10]
  t1/2 for leakage from liposomes: > 60 h
[11]; Example 1 liposomes (DPPC/DPPG/cholesterol)
  calculated capture: 2.6 microliters/micromole lipid
[11]; Example 2 liposomes (EPC/PS/cholesterol)
  Encapsulation: 1.5 - 2 microliters/micromole EPC
